In patent US6828462B2, “Unsaturated 1-amino-alkylcyclohexane NMDA, 5HT3, and neuronal nicotinic receptor antagonists” (Merz Pharma GmbH & Co. KGAA, priority 2001, dated 2004):

Tests used:
NMDA receptors = molecular target: T1, NMDA receptors (Rattus norvegicus, UniProt P35439); assay: Patch clamp, NMDA-induced currents in hippocampal neurones; format: cell-based
T1 construct: Patch clamp recordings were made from these neurones; endogenous in cells; host or cells: primary cultured hippocampal neurones from rat embryos (E20 to E21)

NR1a/2A receptors = molecular target: T2, NR1a/2A receptors (Homo sapiens, UniProt Q05586+Q12879); assay: NMDA receptor blockade in Xenopus oocytes, two-electrode voltage clamp; format: cell-based; details: Xenopus oocytes expressing NR1a/2A
T2 construct: expressed in transfected cells; host or cells: Xenopus laevis oocytes injected with subunit RNA
Protocol: Mature female Xenopus laevis were anaesthetized in 0.2% Tricaine on ice for 15 min prior to surgery. Oocytes were removed and incubated in 2 mg/ml collagenase (type II) in Ca^2+-free oocyte Ringer solution (82.5 mM NaCl, 2 mM KCl, 2 mM MgCl2, 5 mM HEPES, pH 7.5) for 30 min. at room temperature and washed thoroughly with OR-2 (100 mM NaCl, 2 mM KCl, 1 mM MgCl2, 2 mM CaCl2, 5 mM HEPES, pH 7.5). The remaining follicle cell layer was removed manually with fine forceps and the oocytes were kept in OR-2. The RNA was dissolved in DEPC-treated, sterile distilled water. RNA for the NMDA NR1a subunit was mixed 1:1 with RNA for the NR2A subunit. Likewise neuronal nicotinic α4 RNA was mixed 1:1 with RNA for the β2 subunit. […]
Only results from stable cells were accepted for inclusion in the final analysis i.e. showing at least 50% recovery of responses to NMDA following removal of the antagonist tested. […] All antagonists were assessed at steady-state blockade with 6 to 7 concentrations on at least 4 cells. […]
Kinetic experiments were performed by applying various concentrations of unsaturated amino-alkyl-cyclohexanes (normally 5 in a log 3 dosing regime) for 10-20 seconds in the continuous presence of glutamate (100 μM and glycine 10 μM) for 90-180 seconds in Xenopus oocytes expressing NR1a/2A receptors. […] Voltage-dependency was then determined by comparing the glutamate and glutamate plus antagonist curves. […]

[1] = test system: maximal electroshock (MES) tonic convulsions; assay: Maximal electroshock (MES) test, anticonvulsive activity; format: in vivo, mice; details: Mus musculus, ip; NMR female mice, i.p. 30 min before convulsions; read-out: MES ED50
Protocol: (§1) NMR female mice (18-28 g) housed 5 per cage were used for the maximal electroshock (MES) and motor impairment tests. All animals were kept with water and food ad libitum under a 12 hour light-dark cycle (light on at 6 a.m.) and at a controlled temperature (20±0.5C). All experiments were performed between 10 a.m. and 5 p.m. Tested agents were injected 30 min. i.p. before the induction of convulsions if not stated otherwise (see below). All compounds were dissolved in 0.9% saline.
(§2) The MES test was performed together with tests for myorelaxant action (traction reflex) and motor coordination (rotarod). For the traction reflex test mice were placed with their forepaws on a horizontal rod and were required to place all 4 paws on the wire within 10 seconds. To test ataxia (motor coordination) mice were placed on an accelerating rotarod and were required to remain on the rod for 1 minute. […] These tests were followed by MES (100 Hz, 0.5 second shock duration, 50 mA shock intensity, 0.9 ms impulse duration, Ugo Basile) applied through corneal electrodes. The presence of tonic convulsions was scored (tonic extension of hind paws with minimum angle to the body of 90). The aim was to obtain ED50s for all parameters scored (anticonvulsive activity and motor side effects) with use of the Litchfield Wilcoxon test for quantal dose responses. Division of the ED50 for side effects (ataxia or myorelaxation) by the ED50 for antagonism of electroshock convulsions was used as a therapeutic index (TI).
(§3) 4-7 doses of antagonists were tested in each of the in vivo tests (5-8 animals per dose) to allow calculation of graded ED50s according to probit analysis (Litchfield and Wilcoxon) with correction for 0% to 100% effects. ED50s are presented with 95% confidence limits (Cl). Pearson product moment correlation analysis (Sigma Stat, Jandel Scientific) was used to compare in vitro potencies and in vivo anticonvulsant activity.

[2] = Traction reflex test, myorelaxant action; format: in vivo, mice; details: mouse, in vivo, ip; NMR female mice, i.p., traction reflex; read-out: Myorelaxation ED50
Protocol: as §1, §2, §3

[3] = test system: myorelaxation (traction reflex); assay: Traction reflex test, myorelaxant action; format: in vivo, mice; details: ED50 myorelaxation divided by ED50 MES
Protocol: as §1, §2, §3

[4] = Accelerating rotarod test, ataxia (motor coordination); format: in vivo, mice; details: mouse, in vivo, ip; NMR female mice, accelerating rotarod
Protocol: as §1, §2, §3

ataxia (rotarod) = assay: as above; format: in vivo, mice; details: ED50 ataxia divided by ED50 MES
Protocol: as §1, §2, §3

[5] = molecular target: NMDA receptor ([3H]-(+)-MK-801 site) (Rattus norvegicus, UniProt P35439); assay: [3H]-(+)-MK-801 receptor binding, rat cortex membranes

T2 sequence (Q12879 23-1464, other chains not shown): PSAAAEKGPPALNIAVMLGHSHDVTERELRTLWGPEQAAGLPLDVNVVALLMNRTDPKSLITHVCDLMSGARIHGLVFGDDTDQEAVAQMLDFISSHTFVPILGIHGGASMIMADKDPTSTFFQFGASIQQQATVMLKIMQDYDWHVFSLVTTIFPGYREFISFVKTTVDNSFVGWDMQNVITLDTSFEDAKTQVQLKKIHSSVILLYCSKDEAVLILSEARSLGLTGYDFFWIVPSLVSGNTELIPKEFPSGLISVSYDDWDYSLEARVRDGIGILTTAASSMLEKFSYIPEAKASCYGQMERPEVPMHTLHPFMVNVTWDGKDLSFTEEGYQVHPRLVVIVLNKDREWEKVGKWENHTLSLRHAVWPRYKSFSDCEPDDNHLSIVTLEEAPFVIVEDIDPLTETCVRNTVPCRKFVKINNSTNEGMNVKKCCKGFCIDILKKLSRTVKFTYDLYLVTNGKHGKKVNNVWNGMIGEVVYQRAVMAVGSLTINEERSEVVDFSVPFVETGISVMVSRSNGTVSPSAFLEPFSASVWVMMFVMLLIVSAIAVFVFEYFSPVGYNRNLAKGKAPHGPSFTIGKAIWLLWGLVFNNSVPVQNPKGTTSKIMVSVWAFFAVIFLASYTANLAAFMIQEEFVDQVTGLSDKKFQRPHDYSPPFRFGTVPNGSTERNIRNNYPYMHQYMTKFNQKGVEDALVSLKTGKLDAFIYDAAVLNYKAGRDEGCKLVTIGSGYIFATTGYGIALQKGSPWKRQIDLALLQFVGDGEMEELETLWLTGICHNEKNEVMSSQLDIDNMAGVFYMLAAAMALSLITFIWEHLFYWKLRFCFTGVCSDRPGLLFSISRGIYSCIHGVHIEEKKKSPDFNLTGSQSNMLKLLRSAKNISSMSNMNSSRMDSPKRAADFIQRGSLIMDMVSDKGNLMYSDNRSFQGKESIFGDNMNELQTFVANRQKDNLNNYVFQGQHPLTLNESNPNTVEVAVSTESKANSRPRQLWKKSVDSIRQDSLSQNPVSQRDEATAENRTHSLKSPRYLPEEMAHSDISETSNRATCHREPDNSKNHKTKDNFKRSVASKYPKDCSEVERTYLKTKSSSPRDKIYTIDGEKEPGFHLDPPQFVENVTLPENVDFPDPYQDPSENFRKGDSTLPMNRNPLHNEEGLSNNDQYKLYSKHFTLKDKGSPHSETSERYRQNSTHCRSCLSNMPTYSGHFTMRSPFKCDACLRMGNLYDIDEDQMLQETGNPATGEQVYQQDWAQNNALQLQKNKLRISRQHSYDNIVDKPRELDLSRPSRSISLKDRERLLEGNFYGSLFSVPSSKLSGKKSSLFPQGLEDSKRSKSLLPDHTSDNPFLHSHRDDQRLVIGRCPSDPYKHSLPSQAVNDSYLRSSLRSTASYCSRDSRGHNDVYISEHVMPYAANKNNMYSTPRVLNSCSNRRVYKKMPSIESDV

C=CC1(N)CC(C)(C)CC(C)(C)C1 [MRZ 2/759, 1-Ethenyl-3,3,5,5-tetramethylcyclohexylamine]
IC50 (NMDA receptors; Table 1, mean, N=6, read-out: NMDA IC50): 3280 nM | use- and voltage-dependency of blockade (NMDA receptors; hippocampal neurones, NMDA-induced currents): clear use- and voltage-dependency | Steady-state inward current responses to NMDA (NMDA receptors; hippocampal neurones, NMDA 200 μM with glycine 1 μM at -70 mV): antagonized | IC50 (NR1a/2A receptors; glutamate 100 μM, glycine 10 μM, -70 mV): 1990 nM | Hill (NR1a/2A receptors; logistic fit of the concentration-blockade curve): 0.75 | ED50 [1]: 14.8 mg/kg | ED50 at 30 min [2]: 12.8 mg/kg | Therapeutic index (myorelaxation ED50 / MES ED50) [3]: 0.9 | ED50 at 30 min [4]: 15 mg/kg | Therapeutic index (ataxia ED50 / MES ED50) (ataxia (rotarod)): 1.0 | Ki [5]: 1180 nM
